The values below come from paper PMC4912623, “A CD36 ectodomain mediates insect pheromone detection via a putative tunnelling mechanism” (Nature Communications, 2016).

In this assay the target is T1, OR67d/ORCO (Drosophila melanogaster, UniProt Q9VT92).
T1 construct: endogenous receptor in OR67d olfactory neurons in vivo (wild type, or snmp1 null rescued with transgenic SNMP1); with Odorant receptor coreceptor; Sensory neuron membrane protein 1
Kind of assay: single sensillum electrophysiology in flies. The assay is classed as cell-based. The settings on record: v/v dilutions in paraffin oil, airstream.

The structures appear in SMILES notation.

T1 sequence (Q9VT92 whole entry): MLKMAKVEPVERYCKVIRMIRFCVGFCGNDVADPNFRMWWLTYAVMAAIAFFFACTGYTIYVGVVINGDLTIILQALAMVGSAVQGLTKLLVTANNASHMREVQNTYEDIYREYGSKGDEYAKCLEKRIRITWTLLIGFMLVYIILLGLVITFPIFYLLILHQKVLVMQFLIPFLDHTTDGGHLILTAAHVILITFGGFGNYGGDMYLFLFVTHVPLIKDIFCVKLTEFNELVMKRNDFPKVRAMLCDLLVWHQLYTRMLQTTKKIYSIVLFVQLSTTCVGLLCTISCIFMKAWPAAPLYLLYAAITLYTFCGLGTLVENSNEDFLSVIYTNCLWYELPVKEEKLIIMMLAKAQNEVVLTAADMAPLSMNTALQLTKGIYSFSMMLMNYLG
T1 sequence (Q9VNB5 whole entry partner): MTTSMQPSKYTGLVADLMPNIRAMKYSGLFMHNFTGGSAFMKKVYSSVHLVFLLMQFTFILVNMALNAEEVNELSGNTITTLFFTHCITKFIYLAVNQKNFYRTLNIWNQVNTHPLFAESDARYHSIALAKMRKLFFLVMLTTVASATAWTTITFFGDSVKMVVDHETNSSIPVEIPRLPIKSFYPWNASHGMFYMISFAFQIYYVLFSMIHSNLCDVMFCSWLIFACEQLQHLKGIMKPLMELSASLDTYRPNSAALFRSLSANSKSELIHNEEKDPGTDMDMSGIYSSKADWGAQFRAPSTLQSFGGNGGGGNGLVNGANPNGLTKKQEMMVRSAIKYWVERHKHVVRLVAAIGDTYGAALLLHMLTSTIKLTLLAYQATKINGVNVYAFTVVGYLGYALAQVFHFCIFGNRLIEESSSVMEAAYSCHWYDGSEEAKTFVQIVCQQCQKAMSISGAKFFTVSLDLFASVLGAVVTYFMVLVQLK
T1 sequence (Q9VDD3 whole entry partner): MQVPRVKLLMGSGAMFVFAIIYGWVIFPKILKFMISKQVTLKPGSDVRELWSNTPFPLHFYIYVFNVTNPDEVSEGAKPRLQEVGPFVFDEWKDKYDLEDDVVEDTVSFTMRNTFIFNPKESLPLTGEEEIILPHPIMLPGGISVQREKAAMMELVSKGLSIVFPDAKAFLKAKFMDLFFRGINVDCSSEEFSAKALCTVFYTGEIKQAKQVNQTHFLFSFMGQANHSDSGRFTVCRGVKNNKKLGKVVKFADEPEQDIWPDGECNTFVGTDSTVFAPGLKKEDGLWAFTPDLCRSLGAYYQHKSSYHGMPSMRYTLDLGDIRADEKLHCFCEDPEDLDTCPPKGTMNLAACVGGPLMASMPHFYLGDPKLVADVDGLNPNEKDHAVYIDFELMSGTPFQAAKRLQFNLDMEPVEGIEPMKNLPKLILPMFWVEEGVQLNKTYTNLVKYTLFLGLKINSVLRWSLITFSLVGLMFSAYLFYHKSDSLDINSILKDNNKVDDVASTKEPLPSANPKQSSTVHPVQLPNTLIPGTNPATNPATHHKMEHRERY

On to `CCCCCC/C=C\CCCCCCCCCCOC(C)=O` [cVA, (Z)-11-octadecenyl acetate], for which the spikes/s result is recorded as “Concentration–response curves of OR67d neurons to cVA in the indicated rescue genotypes”.
